Source: patent publication US20230337671A1, “DISINFECTANT COMPOSITION” (Helperby Therapeutics Limited, priority 2020, published 2023)

What was measured:
Type in all cases: physicochemical
[1] = Surface tension, Wilhelmy plate method (DataPhysics DCAT 9 tensionmeter); settings: 0.03% w/w HT61 in demineralised water, assumed saturated; measured three times
Description: (§1) To support the use of a low concentration of HT61 acting as an emollient in an aqueous disinfectant composition, the surface tension, contact angle and hydrophilic lipophilic balance (HLB) of this compound were determined. • Sample Preparation: A 0.03% w/w solution was required for both the contact angle and surface tension measurements. This solution was prepared by adding 0.075 g of the HT61 solid (obtained according to the method set out in WO 2007/054693 A1 discussed above) to 250 ml of demineralised water. Some solid remained in solution so analysis was carried out using UV-Vis Spectroscopy. […] The surface tension of the sample was measured using a DataPhysics DCAT 9 tensionmeter and the Wilhelmy plate method. The measurement was made three times, with the plate being cleaned between each measurement. • The contact angle was measured on the surface of parafilm. A sample of parafilm was wrapped around a glass slide and the protective film removed. The contact angle of the liquid with the parafilm was measured by placing a small (e.g. 2 μl) drop of test liquid (the sample) on the test surface. The profile of the drop was measured as a function of time using a DataPhysics OCA 35. Each liquid was measured three times. The contact angles were determined 2 s, 12 s and 30 s after the drop first touched the surface. […]

[2] = Preparation of 0.03% w/w HT61 solution in demineralised water, UV-Vis check; settings: 0.075 g HT61 solid added to 250 ml demineralised water (0.03% w/w)
Description: as §1

[3] = Contact angle of a drop on the surface of parafilm (DataPhysics OCA 35); settings: 0.03% w/w solution
Description: To support the use of a low concentration of HT61 acting as an emollient in an aqueous disinfectant composition, the surface tension, contact angle and hydrophilic lipophilic balance (HLB) of this compound were determined. • Sample Preparation: A 0.03% w/w solution was required for both the contact angle and surface tension measurements. This solution was prepared by adding 0.075 g of the HT61 solid (obtained according to the method set out in WO 2007/054693 A1 discussed above) to 250 ml of demineralised water. Some solid remained in solution so analysis was carried out using UV-Vis Spectroscopy. […] The surface tension of the sample was measured using a DataPhysics DCAT 9 tensionmeter and the Wilhelmy plate method. The measurement was made three times, with the plate being cleaned between each measurement. • The contact angle was measured on the surface of parafilm. A sample of parafilm was wrapped around a glass slide and the protective film removed. The contact angle of the liquid with the parafilm was measured by placing a small (e.g. 2 μl) drop of test liquid (the sample) on the test surface. The profile of the drop was measured as a function of time using a DataPhysics OCA 35. Each liquid was measured three times. The contact angles were determined 2 s, 12 s and 30 s after the drop first touched the surface. For reference, the contact angle of demineralised water was also measured. • The HLB Value was obtained using […] mathematical method (Griffin, W.C., Calculation of HLB Values of Non-Ionic Surfactants, Journal of the Society of Cosmetic Chemists, 1954, 5(4), 249-56): • [formula] • where Mh is the molecular weight of hydrophilic groups (44 gmol^-1) and M is the molecular weight of the whole molecule (380 gmol^-1). • The factor 20 is a scaling factor. Thus a scale of 1 to 20 is generally obtained.

Cc1nc2ccc(Oc3ccccc3)cc2c2c1CCN2CCc1ccccc1 [HT61, 4-methyl-8-phenoxy-1-(2-phenylethyl)-2,3-dihydro-1H-pyrrolo[3,2-c]quinoline]
Average Surface Tension [1]: 55.7 mN/m | Dissolution of HT61 solid in demineralised water [2]: the solution was saturated | Average Contact Angle @2s ([3]; 2 s after drop touched surface): 98 | Average Contact Angle @12s ([3]; 12 s after drop touched surface): 96 | Average Contact Angle @30s ([3]; 30 s after drop touched surface): 96
